Experimental data from US9212146B2, “Substituted pyridazinones for the treatment of tumors” (SHANGHAI INSTITUTE OF MATERIA MEDICA, CHINESE ACADEMY OF …, priority 2008, dated 2015).

tested on: human hepatoma cell line Bel-7402; test: SRB proliferation assay, Bel-7402; format: cell-based; settings: BEL-7402 cultivated in vitro, 72 hours, given as bounds, read-out: The Inhibition Activities for Human Liver Cancer Cells BEL-7402 (IC50)
Description: Protocol: the antineoplasmic activities in vitro of the compounds were assayed by a Sulforhodamine B (SRB) protocol. Tumor cells were cultivated at 37 under 5% CO2 in a RPMI 1640 medium or a DMEM medium (Gibco) containing 10% fetal bovine serum. Tumor cells were inoculated on a 96-well plate with a concentration of 0.4-1.0×10^4 cells per well according to the cell types. 24 hours later, the target compounds diluted 10 times were added, each compound having at least 5 concentrations. After treated by the compounds for 72 hours, the culture media were discarded, and the cells were fixed by 10% cold trichloroacetic acid, and then stained by Sulforhodamine B (SRB) solution. The uncombined SRB was washed off, and the SRB combined with protein was dissolved with Tris. OD values were recorded at 515 nm on an ELISA Reader, and the cell growth inhibition rate was calculated according to following equation: Inhibition rate=(ODcontrol−ODexperimental)/ODcontrol×100%
IC50 (50% inhibitory concentration) was calculated by using Logit method based on the inhibition rates at various concentration, and the results are shown in tables 1 and 2.
The following cell lines were used: human hepatocarcinoma cell line […]; ovarian cancer cell line SK-OV-3; human breast cancer cell line MDA-MB-231; human renal carcinoma cell line A498; colon adenocarcinoma cell line HT-29; non-small cell lung cancer cell line NCI-H460; lung adenocarcinoma cell line A549; human colon cancer cell line SW-620; human hepatoma cell line Bel-7402; human breast carcinoma cell line SK-BR-3; and human umbilical vein endothelial cells (HUVEC).

Row | Compound | IC50
1 | COc1ccc(-c2ccc(=O)[nH]n2)cc1C(F)(F)F [YHHU-546] | < 100 nM

same assay, conditions: Homo sapiens, Bel-7402, 72 h, BEL-7402 cultivated in vitro, given as bounds, read-out: The Inhibition Activities for Human Liver Cancer Cells BEL-7402 (IC50)

Row | Compound | IC50
2 | CN(C)COc1ccc(-c2ccc(=O)[nH]n2)cc1C(F)(F)F [YHHU-501] | < 100 nM
3 | CC(C)C(Oc1ccc(-c2ccc(=O)[nH]n2)cc1C(F)(F)F)C(C)C [YHHU-502] | < 100 nM
4 | O=c1ccc(-c2ccc(OC3CCCC3)c(C(F)(F)F)c2)n[nH]1 [YHHU-503] | < 100 nM
5 | CCOC(=O)CSc1ccc(-c2ccc(=O)[nH]n2)cc1C(F)(F)F [YHHU-532] | < 100 nM
6 | O=c1ccc(-c2ccc(CO)c(C(F)(F)F)c2)n[nH]1 [YHHU-574] | < 100 nM
7 | O=c1ccc(-c2ccc(CCN3CCCCC3)c(C(F)(F)F)c2)n[nH]1 [YHHU-575] | < 100 nM
8 | CCOc1ccc(-c2ccc(=O)[nH]n2)cc1C(F)(F)F [YHHU-578] | < 100 nM
9 | O=c1ccc(-c2ccc(OCCBr)c(C(F)(F)F)c2)n[nH]1 [YHHU-579] | < 100 nM
10 | O=c1ccc(-c2ccc(O)c(C(F)(F)F)c2)n[nH]1 [YHHU-580] | < 100 nM
11 | Cc1ccc(-c2ccc(=O)[nH]n2)cc1C(F)(F)F [YHHU-581] | < 100 nM
12 | O=c1ccc(-c2ccc(OCCOCCO)c(C(F)(F)F)c2)n[nH]1 [YHHU-582] | < 100 nM
13 | O=c1ccc(-c2ccc(CCN3CCOCC3)c(C(F)(F)F)c2)n[nH]1 [YHHU-585] | < 100 nM
14 | O=c1ccc(-c2ccc(OCCC(F)(F)F)c(C(F)(F)F)c2)n[nH]1 [YHHU-586] | < 100 nM
15 | CCSc1ccc(-c2ccc(=O)[nH]n2)cc1C(F)(F)F [YHHU-589] | < 100 nM
16 | CN1CCCC(COc2ccc(-c3ccc(=O)[nH]n3)cc2C(F)(F)F)C1 (stereo not shown) [YHHU-590] | < 100 nM
17 | O=c1ccc(-c2ccc(OC34CC5CCC(C3)C(C5)C4)c(C(F)(F)F)c2)n[nH]1 (stereo not shown) [YHHU-592] | < 100 nM
18 | CC1CCC(C(C)C)C(Oc2ccc(-c3ccc(=O)[nH]n3)cc2C(F)(F)F)C1 (stereo not shown) [YHHU-595] | < 100 nM
19 | CC(Oc1ccc(-c2ccc(=O)[nH]n2)cc1C(F)(F)F)N1CCCCC1 (stereo not shown) [YHHU-597] | < 100 nM

Row | Compound | IC50
20 | O=c1ccc(-c2ccc(OC3CCCCCC3)c(C(F)(F)F)c2)n[nH]1 [YHHU-598] | < 100 nM
21 | CN(C)c1ccc(-c2ccc(=O)[nH]n2)cc1C(F)(F)F [YHHU-647] | < 10 nM
22 | O=c1ccc(-c2ccc(Nc3ccccc3)c(C(F)(F)F)c2)n[nH]1 [YHHU-658] | < 100 nM
23 | O=c1ccc(-c2ccc(NCc3ccccc3)c(C(F)(F)F)c2)n[nH]1 [YHHU-659] | < 100 nM
24 | O=C(O)[C@@H]1CC(O)CN1c1ccc(-c2ccc(=O)[nH]n2)cc1C(F)(F)F (stereo partly shown) [YHHU-666] | < 1000 nM
25 | O=C1CCCN1c1ccc(-c2ccc(=O)[nH]n2)cc1C(F)(F)F [YHHU-667] | < 100 nM
26 | O=C1CSC(=S)N1c1ccc(-c2ccc(=O)[nH]n2)cc1C(F)(F)F [YHHU-668] | < 1000 nM
27 | C[C@@H]1CN(c2ccc(-c3ccc(=O)[nH]n3)cc2C(F)(F)F)C[C@H](C)O1 [YHHU-669] | < 10 nM
28 | O=c1ccc(-c2ccc(N3CCSC3)c(C(F)(F)F)c2)n[nH]1 [YHHU-670] | < 1000 nM
29 | CCOC(=O)C1CCCN(c2ccc(-c3ccc(=O)[nH]n3)cc2C(F)(F)F)C1 (stereo not shown) [YHHU-671] | < 10 nM
30 | O=C1CCN(c2ccc(-c3ccc(=O)[nH]n3)cc2C(F)(F)F)CC1 [YHHU-672] | < 100 nM
31 | O=C1CCC(=O)N1c1ccc(-c2ccc(=O)[nH]n2)cc1C(F)(F)F [YHHU-673] | < 1000 nM
32 | O=C1CSC(=O)N1c1ccc(-c2ccc(=O)[nH]n2)cc1C(F)(F)F [YHHU-674] | < 1000 nM
33 | C[C@H]1CN(c2ccc(-c3ccc(=O)[nH]n3)cc2C(F)(F)F)CCN1 [YHHU-675] | < 10 nM
34 | CN(C)[C@H]1CCN(c2ccc(-c3ccc(=O)[nH]n3)cc2C(F)(F)F)C1 [YHHU-676] | < 10 nM
35 | O=c1ccc(-c2ccc(N3CCNCC3)c(C(F)(F)F)c2)n[nH]1 [YHHU-677] | < 100 nM
36 | CC(C)(C)OC(=O)N1CCN(c2ccc(-c3ccc(=O)[nH]n3)cc2C(F)(F)F)CC1 [YHHU-678] | < 10 nM
37 | O=c1ccc(-c2ccc(N3CCC(CCO)CC3)c(C(F)(F)F)c2)n[nH]1 [YHHU-679] | < 100 nM
